Measured values as given in patent US20260098026A1, “M4 ACTIVATORS/MODULATORS AND USES THEREOF” (Cerevel Therapeutics, LLC, priority 2022, published 2026).
pEC50: −log10 of the molar value.

Legend:
[1] = target: T1, M3 muscarinic acetylcholine receptor (mAChR) (Homo sapiens, UniProt P20309); assay: FLIPR calcium assay (Fluo 8), M3-overexpressing CHO-K1 cells; type: cell-based; conditions: FLIPR calcium
T1 construct: expressed in transfected cells; host or cells: CHO-K1
Procedure: Stimulation of a Gq-coupled G-protein coupled receptors (GPCRs), result in an efflux of calcium from the endoplasmic reticulum to the cytoplasm (Berridge, 1993), thus rendering this assay appropriate for the assessment of M1, M3 and M5 receptors. CHO-K1 cells overexpressing the M1, M3, or M5 muscarinic acetylcholine receptor (mAChR) were dispensed at 15,000 cells per well in 30 μl volume to 384-well plates and grown overnight at 37° C. in a 5% CO2 atmosphere. Fluo-8 Solution, 10 μl per well, was added to each well and incubated for 30 minutes at 37° C. in a 5% CO2 atmosphere. Compounds diluted in Hanks' balanced salt solution (HBSS) were transferred to the cell assay plate at 10 μl per well, and then read on a FLIPR instrument. EC50 and Emax figures were calculated from the resulting data for each receptor subtype.

M4 mAChR = target: T2, M4 mAChR (Homo sapiens, UniProt P08173); assay: cAMP TR-FRET assay with forskolin, M4-overexpressing CHO-K1 cells; type: cell-based; conditions: cAMP TR-FRET with forskolin
T2 construct: expressed in transfected cells; host or cells: CHO-K1
T2 sequence (P08173 1-479): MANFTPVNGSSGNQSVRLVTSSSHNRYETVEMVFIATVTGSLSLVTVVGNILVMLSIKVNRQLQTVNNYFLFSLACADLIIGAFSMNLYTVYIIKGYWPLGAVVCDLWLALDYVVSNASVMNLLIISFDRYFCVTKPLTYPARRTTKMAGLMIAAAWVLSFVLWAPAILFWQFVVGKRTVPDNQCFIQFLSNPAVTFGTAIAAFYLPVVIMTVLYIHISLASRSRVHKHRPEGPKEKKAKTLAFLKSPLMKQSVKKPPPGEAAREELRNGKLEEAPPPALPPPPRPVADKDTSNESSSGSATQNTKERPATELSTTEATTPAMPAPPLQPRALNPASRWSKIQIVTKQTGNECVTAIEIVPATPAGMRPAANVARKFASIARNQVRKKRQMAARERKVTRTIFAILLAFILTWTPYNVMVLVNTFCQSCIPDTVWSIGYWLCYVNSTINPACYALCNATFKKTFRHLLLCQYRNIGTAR
Description: The M2 and M4 mACh receptors are Gi-coupled receptors which, upon activation, produce a decrease in cAMP. Assays were developed that measured the potency and efficacy of compounds at the M2 or M4 mAChR using M2- or M4-overexpressing CHO-K1 cell lines. Time-resolved fluorescence resonance energy transfer (TR-FRET) technology was used, where signal occurs as a result of transfer of energy if the donor molecule is in close proximity to an acceptor molecule when the molecules have bound to the molecule of interest. The cAMP detection is a competition binding assay, where cAMP produced by cells competes for binding with the labeled donor molecule to the anti-cAMP acceptor antibody. Due to the low basal levels of cAMP in the CHO-K1 cell line, forskolin was used to increase cAMP levels to enable assessment of agonist activity at the mAChR of interest.

T1 sequence (P20309 whole entry): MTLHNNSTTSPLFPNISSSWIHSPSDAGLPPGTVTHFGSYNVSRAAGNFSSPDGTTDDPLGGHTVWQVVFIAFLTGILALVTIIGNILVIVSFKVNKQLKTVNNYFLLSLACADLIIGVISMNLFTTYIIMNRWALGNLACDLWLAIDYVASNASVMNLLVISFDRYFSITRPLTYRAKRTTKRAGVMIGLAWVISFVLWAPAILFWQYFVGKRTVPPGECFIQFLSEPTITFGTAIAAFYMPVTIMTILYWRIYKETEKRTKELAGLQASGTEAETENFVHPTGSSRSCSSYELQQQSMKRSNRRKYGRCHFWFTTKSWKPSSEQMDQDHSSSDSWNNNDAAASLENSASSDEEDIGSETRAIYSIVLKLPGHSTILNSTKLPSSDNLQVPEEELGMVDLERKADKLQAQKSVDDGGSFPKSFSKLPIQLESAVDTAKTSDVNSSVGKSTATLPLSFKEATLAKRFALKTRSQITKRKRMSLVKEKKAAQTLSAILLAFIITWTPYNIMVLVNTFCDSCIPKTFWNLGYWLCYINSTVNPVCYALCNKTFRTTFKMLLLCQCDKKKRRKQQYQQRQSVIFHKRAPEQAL

| pEC50 [1] | Emax (M4 mAChR) | Compound |
| --- | --- | --- |
| < 5.00 | 80 to 100% | CCOC(=O)N1CC2(CC[C@@H](N3CCN(c4cc(F)cnc4-c4cnc(F)c(F)c4)CC3)C2)C1 [Compound A79] |
| < 5.00 | 80 to 100% | CCOC(=O)N1CC2(CC[C@@H](N3CCN(c4cc(F)cnc4-c4cnc(C#N)c(F)c4)CC3)C2)C1 [Compound A83] |
| < 5.00 | 80 to 100% | CCOC(=O)N1CC2(CC[C@@H](N3CCN(c4cc(F)cnc4-c4csc(CO)c4)CC3)C2)C1 [Compound A86] |
| < 5.00 | 80 to 100% | CCOC(=O)N1CC2(CC[C@@H](N3CCN(c4cc(F)cnc4-c4ccn5ccnc5c4)CC3)C2)C1 [Compound A92] |
| < 5.00 | 80 to 100% | CCOC(=O)N1CC2(CC[C@@H](N3CCN(c4cc(F)cnc4-c4ccc5nccn5c4)CC3)C2)C1 [Compound A96] |
| < 5.00 | 80 to 100% | CCOC(=O)N1CC2(CC[C@@H](N3CCN(c4cc(F)cnc4-c4ccnc(C)c4)CC3)C2)C1 [Compound A98] |
| < 5.00 | 80 to 100% | CCOC(=O)N1CC2(CC[C@@H](N3CCN(c4cc(F)cnc4-c4cnc5c(ccn5C)c4)CC3)C2)C1 [Compound A99] |
| < 5.00 | 80 to 100% | CCOC(=O)N1CC2(CC[C@@H](N3CCN(c4cc(F)cnc4-c4cc(C)[nH]n4)CC3)C2)C1 [Compound A101] |
| < 5.00 | 80 to 100% | CCOC(=O)N1CC2(CC[C@@H](N3CCN(c4cc(F)cnc4-c4ccn(C)c(=O)c4)CC3)C2)C1 [Compound A102] |
| < 5.00 | 80 to 100% | CCOC(=O)N1CC2(CC[C@@H](N3CCN(c4cc(F)cnc4-c4ccc(F)c(CO)c4)CC3)C2)C1 [Compound A105] |
| < 5.00 | 80 to 100% | CCOC(=O)N1CC2(CC[C@@H](N3CCN(c4cc(F)cnc4-c4ccnc(OC)c4F)CC3)C2)C1 [Compound A106] |
| < 5.00 | 80 to 100% | CCOC(=O)N1CC2(CC[C@@H](N3CCN(c4cc(F)cnc4-c4ccc(OCC)nc4)CC3)C2)C1 [Compound A107] |
| < 5.00 | 80 to 100% | CCOC(=O)N1CC2(CC[C@@H](N3CCN(c4cc(F)cnc4-c4cc(C)cnc4F)CC3)C2)C1 [Compound A108] |
| < 5.00 | 80 to 100% | CCOC(=O)N1CC2(CC[C@@H](N3CCN(c4cc(F)cnc4-c4cccnc4C)CC3)C2)C1 [Compound A109] |
| < 5.00 | 80 to 100% | CCOC(=O)N1CC2(CC[C@@H](N3CCN(c4cc(F)cnc4-c4ccnc(OC)c4)CC3)C2)C1 [Compound A110] |
| < 5.00 | 80 to 100% | CCOC(=O)N1CC2(CC[C@@H](N3CCN(c4cc(F)cnc4-c4cnc(OC)c(C)c4)CC3)C2)C1 [Compound A111] |
| < 5.00 | 80 to 100% | CCOC(=O)N1CC2(CC[C@@H](N3CCN(c4cc(F)cnc4-c4ccc(OC)c(F)c4)CC3)C2)C1 [Compound A112] |
| < 5.00 | 80 to 100% | CCOC(=O)N1CC2(CC[C@@H](N3CCN(c4cc(F)cnc4-c4ccnc(F)c4C)CC3)C2)C1 [Compound A114] |
| < 5.00 | 80 to 100% | CCOC(=O)N1CC2(CC[C@@H](N3CCN(c4cc(F)cnc4-c4ccc(C)nc4OC)CC3)C2)C1 [Compound A116] |
| < 5.00 | 80 to 100% | CCOC(=O)N1CC2(CC[C@@H](N3CCN(c4cc(F)cnc4-c4ccn(C)n4)CC3)C2)C1 [Compound A120] |
| < 5.00 | 80 to 100% | CCOC(=O)N1CC2(CC[C@@H](N3CCN(c4cc(F)cnc4-c4cncc(OCC)c4)CC3)C2)C1 [Compound A122] |
| < 5.00 | 80 to 100% | CCOC(=O)N1CC2(CC[C@@H](N3CCN(c4cc(F)cnc4-c4ccc(=O)n(C)c4)CC3)C2)C1 [Compound A123] |
| < 5.00 | 80 to 100% | CCOC(=O)N1CC2(CC[C@@H](N3CCN(c4cc(F)cnc4-c4cc(C)nc(F)c4)CC3)C2)C1 [Compound A125] |
| < 5.00 | 80 to 100% | CCOC(=O)N1CC2(CC[C@@H](N3CCN(c4cc(F)cnc4-c4ccc5c(c4)ncn5C)CC3)C2)C1 [Compound A131] |

The remaining lines, values behind:

| Compound | pEC50 [1] | Emax (M4 mAChR) |
| --- | --- | --- |
| CCOC(=O)N1CC2(CC[C@@H](N3CCN(c4cc(F)cnc4-c4cnc(N(C)C)nc4)CC3)C2)C1 [Compound A73] | < 5.00 | 80 to 100% |
| CCOC(=O)N1CC2(CC[C@@H](N3CCN(c4cc(F)cnc4-c4ccnn4CC(C)C)CC3)C2)C1 [Compound A77] | < 5.00 | 80 to 100% |
| CCOC(=O)N1CC2(CC[C@@H](N3CCN(c4cc(F)cnc4-c4c(C)noc4C)CC3)C2)C1 [Compound A78] | < 5.00 | 80 to 100% |
| CCOC(=O)N1CC2(CC[C@@H](N3CCN(c4cc(F)cnc4-c4c(C)n[nH]c4C)CC3)C2)C1 [Compound A81] | < 5.00 | 80 to 100% |
| C=CCn1cc(-c2ncc(F)cc2N2CCN([C@@H]3CCC4(C3)CN(C(=O)OCC)C4)CC2)cn1 [Compound A84] | < 5.00 | 80 to 100% |
| CCOC(=O)N1CC2(CC[C@@H](N3CCN(c4cc(F)cnc4-c4c[nH]nc4C(F)(F)F)CC3)C2)C1 [Compound A85] | < 5.00 | 80 to 100% |
| CCOC(=O)N1CC2(CC[C@@H](N3CCN(c4cc(F)cnc4-c4ccc(CO)s4)CC3)C2)C1 [Compound A88] | < 5.00 | 80 to 100% |
| CCOC(=O)N1CC2(CC[C@@H](N3CCN(c4cc(F)cnc4-c4ccnc5c4ccn5C)CC3)C2)C1 [Compound A89] | < 5.00 | 80 to 100% |
| CCOC(=O)N1CC2(CC[C@@H](N3CCN(c4cc(F)cnc4-c4cccc(CCO)c4)CC3)C2)C1 [Compound A90] | < 5.00 | 80 to 100% |
| CCOC(=O)N1CC2(CC[C@@H](N3CCN(c4cc(F)cnc4-c4ccc(C#N)cc4OC)CC3)C2)C1 [Compound A94] | < 5.00 | 80 to 100% |
| CCOC(=O)N1CC2(CC[C@@H](N3CCN(c4cc(F)cnc4-c4ccc5c(c4)OCCN5)CC3)C2)C1 [Compound A95] | < 5.00 | 80 to 100% |
| CCOC(=O)N1CC2(CC[C@@H](N3CCN(c4cc(F)cnc4-c4cccc(C(=O)NC)c4)CC3)C2)C1 [Compound A97] | < 5.00 | 80 to 100% |
| CCOC(=O)N1CC2(CC[C@@H](N3CCN(c4cc(F)cnc4-c4ccc(F)cc4O)CC3)C2)C1 [Compound A115] | < 5.00 | 80 to 100% |
| CCOC(=O)N1CC2(CC[C@@H](N3CCN(c4cc(F)cnc4-c4cc(F)ccc4CO)CC3)C2)C1 [Compound A117] | < 5.00 | 80 to 100% |
| CCOC(=O)N1CC2(CC[C@@H](N3CCN(c4cc(F)cnc4-c4cccc(F)c4O)CC3)C2)C1 [Compound A118] | < 5.00 | 80 to 100% |
| CCOC(=O)N1CC2(CC[C@@H](N3CCN(c4cc(F)cnc4-c4cc(F)nc(F)c4)CC3)C2)C1 [Compound A119] | < 5.00 | 80 to 100% |
| CCOC(=O)N1CC2(CC[C@@H](N3CCN(c4cc(F)cnc4-c4ccn(CC)n4)CC3)C2)C1 [Compound A121] | < 5.00 | 80 to 100% |
| CCOC(=O)N1CC2(CC[C@@H](N3CCN(c4cc(F)cnc4-c4cnc(N5CCC5)nc4)CC3)C2)C1 [Compound A124] | < 5.00 | 80 to 100% |
| CCOC(=O)N1CC2(CC[C@@H](N3CCN(c4cc(F)cnc4-c4cnn(C5COC5)c4)CC3)C2)C1 [Compound A126] | < 5.00 | 80 to 100% |
| CCOC(=O)N1CC2(CC[C@@H](N3CCN(c4cc(F)cnc4-c4cc(O)ccc4F)CC3)C2)C1 [Compound A127] | < 5.00 | 80 to 100% |
| CCOC(=O)N1CC2(CC[C@@H](N3CCN(c4cc(F)cnc4-c4cccc(F)n4)CC3)C2)C1 [Compound A128] | < 5.00 | 80 to 100% |
| CCOC(=O)N1CC2(CC[C@@H](N3CCN(c4cc(F)cnc4-c4cnc5c(cnn5C)c4)CC3)C2)C1 [Compound A129] | < 5.00 | 80 to 100% |
| CCOC(=O)N1CC2(CC[C@@H](N3CCN(c4cc(F)cnc4-c4ccc5c(c4)OCO5)CC3)C2)C1 [Compound A130] | < 5.00 | 80 to 100% |
| CCOC(=O)N1CC2(CC[C@@H](N3CCN(c4cc(F)cnc4-c4cnc(OCC)nc4)CC3)C2)C1 [Compound A132] | < 5.00 | 80 to 100% |
